Source: ChEMBL document CHEMBL3885881, “DrugMatrix”

Key:
Rattus norvegicus [1] = species on record: Rattus norvegicus; assay: DrugMatrix - Regimen: Daily Repeat; type: toxicity, organism-based, Sprague-Dawley; parameters: regimen Daily Repeat, gender Male, age 6-8 weeks; conditions: in vivo, po, 0 mg/kg, […], route oral GAVAGE, dose level Control, time 14 day, vehicle 100 % WATER
Rattus norvegicus [2] = species on record: Rattus norvegicus; type: toxicity, organism-based, Sprague-Dawley; conditions: in vivo, po, 0 mg/kg, 24 h, route oral GAVAGE, dose level Control, time 1 day, vehicle 100 % WATER
Description: DrugMatrix - Regimen: Single

c1ccncc1 [PYRIDINE]
ABSOLUTE BASOPHIL (Rattus norvegicus [1]; tissue Blood): 0 CELLS/uL | ABSOLUTE EOSINOPHIL (Rattus norvegicus [1]; tissue Blood): 117.17 CELLS/uL | ABSOLUTE LYMPHOCYTE (Rattus norvegicus [1]; tissue Blood): 12774.17 CELLS/uL | ABSOLUTE MONOCYTE (Rattus norvegicus [1]; tissue Blood): 419 CELLS/uL | ABSOLUTE SEGMENTED NEUTROPHIL (Rattus norvegicus [1]; tissue Blood): 2139.67 CELLS/uL | BASOPHIL (Rattus norvegicus [1]; tissue Blood): 0% | EOSINOPHIL (Rattus norvegicus [1]; tissue Blood): 0.67% | ERYTHROCYTE COUNT (Rattus norvegicus [1]; tissue Blood): 6.61 x10E6/uL | HEMATOCRIT (Rattus norvegicus [1]; tissue Blood): 37.58% | HEMOGLOBIN (Rattus norvegicus [1]; tissue Blood): 13.8 G/DL | LEUKOCYTE COUNT (Rattus norvegicus [1]; tissue Blood): 15.45 x10E3/uL | LYMPHOCYTE (Rattus norvegicus [1]; tissue Blood): 83% | MEAN CORPUSCULAR HEMOGLOBIN (Rattus norvegicus [1]; tissue Blood): 20.87 pg | MEAN CORPUSCULAR HEMOGLOBIN CONCENTRATION (Rattus norvegicus [1]; tissue Blood): 36.72 G/DL | MEAN CORPUSCULAR VOLUME (Rattus norvegicus [1]; tissue Blood): 56.85 fL | MONOCYTE (Rattus norvegicus [1]; tissue Blood): 2.67% | NEUTROPHIL (Rattus norvegicus [1]; tissue Blood): 13.67% | NUCLEATED RED BLOOD CELLS (Rattus norvegicus [1]; tissue Blood): 0 /100WBC | PLATELET COUNT (Rattus norvegicus [1]; tissue Blood): 1108.33 x10E3/uL | ALANINE AMINOTRANSFERASE (Rattus norvegicus [1]; tissue Plasma): 56.83 u/L | ALBUMIN (Rattus norvegicus [1]; tissue Plasma): 4.18 G/DL | ALKALINE PHOSPHATASE (Rattus norvegicus [1]; tissue Plasma): 354.33 u/L | ASPARTATE AMINOTRANSFERASE (Rattus norvegicus [1]; tissue Plasma): 93.33 u/L | BLOOD UREA NITROGEN (Rattus norvegicus [1]; tissue Plasma): 16.67 mg/dL | CARBON DIOXIDE (Rattus norvegicus [1]; tissue Plasma): 27.83 mmol/L | CHLORIDE (Rattus norvegicus [1]; tissue Plasma): 102.17 MEQ/L | CHOLESTEROL (Rattus norvegicus [1]; tissue Plasma): 62.33 mg/dL | CREATININE (Rattus norvegicus [1]; tissue Plasma): 0.2 mg/dL | GLUCOSE (Rattus norvegicus [1]; tissue Plasma): 137 mg/dL | LACTATE DEHYDROGENASE (Rattus norvegicus [1]; tissue Plasma): 407 u/L | LIPASE (Rattus norvegicus [1]; tissue Plasma): 10.83 u/L | PHOSPHORUS (Rattus norvegicus [1]; tissue Plasma): 11.45 mg/dL | POTASSIUM (Rattus norvegicus [1]; tissue Plasma): 6.51 MEQ/L | SODIUM (Rattus norvegicus [1]; tissue Plasma): 145.57 MEQ/L | TOTAL BILIRUBIN (Rattus norvegicus [1]; tissue Plasma): 0.2 mg/dL | TOTAL PROTEIN (Rattus norvegicus [1]; tissue Plasma): 6.3 G/DL | URIC ACID (Rattus norvegicus [1]; tissue Plasma): 1.93 mg/dL | ABSOLUTE EOSINOPHIL (Rattus norvegicus [2]; tissue Blood): 91.83 CELLS/uL | ABSOLUTE LYMPHOCYTE (Rattus norvegicus [2]; tissue Blood): 13862.33 CELLS/uL | ABSOLUTE MONOCYTE (Rattus norvegicus [2]; tissue Blood): 437.83 CELLS/uL | ABSOLUTE SEGMENTED NEUTROPHIL (Rattus norvegicus [2]; tissue Blood): 1358 CELLS/uL | BASOPHIL (Rattus norvegicus [2]; tissue Blood): 0% | EOSINOPHIL (Rattus norvegicus [2]; tissue Blood): 0.5% | ERYTHROCYTE COUNT (Rattus norvegicus [2]; tissue Blood): 5.12 x10E6/uL | HEMATOCRIT (Rattus norvegicus [2]; tissue Blood): 31.77% | HEMOGLOBIN (Rattus norvegicus [2]; tissue Blood): 11.8 G/DL | LEUKOCYTE COUNT (Rattus norvegicus [2]; tissue Blood): 15.75 x10E3/uL | LYMPHOCYTE (Rattus norvegicus [2]; tissue Blood): 88.33% | MEAN CORPUSCULAR HEMOGLOBIN (Rattus norvegicus [2]; tissue Blood): 23.07 pg | MEAN CORPUSCULAR HEMOGLOBIN CONCENTRATION (Rattus norvegicus [2]; tissue Blood): 37.17 G/DL | MEAN CORPUSCULAR VOLUME (Rattus norvegicus [2]; tissue Blood): 62.15 fL | MONOCYTE (Rattus norvegicus [2]; tissue Blood): 2.67% | NEUTROPHIL (Rattus norvegicus [2]; tissue Blood): 8.5% | NUCLEATED RED BLOOD CELLS (Rattus norvegicus [2]; tissue Blood): 0 /100WBC | PLATELET COUNT (Rattus norvegicus [2]; tissue Blood): 1113.83 x10E3/uL | ALANINE AMINOTRANSFERASE (Rattus norvegicus [2]; tissue Plasma): 45.5 u/L | ALBUMIN (Rattus norvegicus [2]; tissue Plasma): 4.07 G/DL | ALKALINE PHOSPHATASE (Rattus norvegicus [2]; tissue Plasma): 343.83 u/L | ASPARTATE AMINOTRANSFERASE (Rattus norvegicus [2]; tissue Plasma): 70.67 u/L | BLOOD UREA NITROGEN (Rattus norvegicus [2]; tissue Plasma): 13 mg/dL | CARBON DIOXIDE (Rattus norvegicus [2]; tissue Plasma): 33 mmol/L | CHLORIDE (Rattus norvegicus [2]; tissue Plasma): 100.33 MEQ/L | CHOLESTEROL (Rattus norvegicus [2]; tissue Plasma): 76.67 mg/dL | CREATININE (Rattus norvegicus [2]; tissue Plasma): 0.12 mg/dL | GLUCOSE (Rattus norvegicus [2]; tissue Plasma): 148.67 mg/dL | LACTATE DEHYDROGENASE (Rattus norvegicus [2]; tissue Plasma): 116.67 u/L | LIPASE (Rattus norvegicus [2]; tissue Plasma): 8 u/L | PHOSPHORUS (Rattus norvegicus [2]; tissue Plasma): 12.58 mg/dL | POTASSIUM (Rattus norvegicus [2]; tissue Plasma): 6.33 MEQ/L | SODIUM (Rattus norvegicus [2]; tissue Plasma): 142.88 MEQ/L | TOTAL BILIRUBIN (Rattus norvegicus [2]; tissue Plasma): 0.18 mg/dL | TOTAL PROTEIN (Rattus norvegicus [2]; tissue Plasma): 5.77 G/DL | URIC ACID (Rattus norvegicus [2]; tissue Plasma): 1.27 mg/dL
